According to US8546608B2, “Proteasome inhibitors and methods of using the same” (Cephalon, Inc., priority 2003, dated 2013):
Where two headings read alike, the source gives them in different places.

Assays:
[1] = target: T1, 20S Human Erythrocyte Proteasome (HEP) (Homo sapiens, UniProt P20618+P28074); experiment: Chymotrypsin-like activity of 20S Human Erythrocyte Proteasome (HEP), IC50 determination; format: biochemical; conditions: assay of Example C, inhibition of HEP
T1 construct: 20S Human Erythrocyte Proteasome (HEP), purchased from Immatics Biotechnologies Inc; purchased Immatics Biotechnologies Inc., Tübingen, Germany; host or cells: human erythrocytes (natural source)
Outline: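 20S proteasome at 0.2 μg/mL (about 0.6 nM catalytic sites) in 20 mM Tris with 0.04% SDS, preincubated 15 min at 37° C with inhibitor before Suc-LLVY-AMC (100 μM final). AMC fluorescence read in the linear range; triplicates, IC50 from concentration series.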

[2] = target: T2, proteasome in Molt-4 cells (human leukemia) (Homo sapiens, UniProt P20618+P28074); format: cell-based
T2 sequence (P28074 60-263): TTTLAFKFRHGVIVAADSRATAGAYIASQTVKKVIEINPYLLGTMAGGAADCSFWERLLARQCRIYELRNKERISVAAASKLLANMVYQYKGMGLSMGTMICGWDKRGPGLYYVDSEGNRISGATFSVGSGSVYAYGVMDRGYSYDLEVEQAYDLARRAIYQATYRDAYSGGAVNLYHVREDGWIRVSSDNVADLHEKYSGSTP
T2 sequence (P20618 29-241): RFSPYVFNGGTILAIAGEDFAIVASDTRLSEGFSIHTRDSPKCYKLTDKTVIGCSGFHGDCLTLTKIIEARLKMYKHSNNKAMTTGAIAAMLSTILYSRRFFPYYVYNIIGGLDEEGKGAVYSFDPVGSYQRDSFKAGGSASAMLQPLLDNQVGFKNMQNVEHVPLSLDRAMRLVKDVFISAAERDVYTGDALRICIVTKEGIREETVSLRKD
Outline: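 Intact Molt-4 cells (6×10^6 cells/mL) in HEPES-buffered saline were preincubated with inhibitor 15 min at 37 °C, then given cell-permeable MeOSuc-FLF-AFC at 25 μM final.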

[3] = assay of Example E, inhibition of MOLT4; read-out: MOLT4 (EC50)

Row | SMILES | IC50 [1] [µM] | melting point [°C] | EC50 [2, 3] [µM] | EC50 ([2]; read-out: MOLT4 (EC50); assay of Example E, inhibition of MOLT4) [µM]
1 | CCCCc1ccc(C(=O)N[C@@H](CNS(=O)(=O)c2ccc(N3CCOCC3)nc2)C(=O)N[C@@H](CC(C)C)B(O)O)cc1.Cl [E.5.27, Boronic acid, [(1R)-1-[[(2S)-3-[6-morpholin-4-yl-pyridine-3-sulfamoyl]-2-[(4-butylbenzoyl)amino]-1-oxopropyl]amino]-3-methylbutyl] hydrochloride] | < 0.01 | 182 to 184 | – | < 0.2
2 | CCCCc1ccc(C(=O)N[C@@H](CNC(=O)C#Cc2ccccc2)C(=O)N[C@@H](CC(C)C)B(O)O)cc1 [E.5.35] | < 0.01 | 138 to 140 | < 0.2 | –
3 | CCCCc1ccc(C(=O)N[C@@H](CNC(=O)c2cccn2C)C(=O)N[C@@H](CC(C)C)B(O)O)cc1 [E.5.16, Boronic acid, [(1R)-1-[[(2S)-3-[1-N-methyl-2-pyrrolylcarbonylamino]-2-[(4-butylbenzoyl)amino]-1-oxopropyl]amino]-3-methylbutyl]] | < 0.01 | 130 to 135 | < 0.2 | –
4 | CCCCc1ccc(C(=O)N[C@@H](CNC(=O)NS(=O)(=O)c2ccc(C)cc2)C(=O)N[C@@H](CC(C)C)B(O)O)cc1 [E.5.36] | < 0.1 | 175 to 177 | 0.2 to 2 | –

Now from value to compound, other results behind:

Row | IC50 [1] [µM] | melting point [°C] | EC50 [2, 3] [µM] | SMILES | EC50 ([2]; read-out: MOLT4 (EC50); assay of Example E, inhibition of MOLT4) [µM]
5 | < 0.01 | 168 to 170 | < 0.2 | CCCCc1ccc(C(=O)N[C@@H](CNC(=O)c2ccc(S(C)(=O)=O)cc2)C(=O)N[C@@H](CC(C)C)B(O)O)cc1 [E.5.20, Boronic acid, [(1R)-1-[[(2S)-3-[(4-methylsulfonyl)benzoylamino]-2-[(4-butylbenzoylamino)]-1-oxopropyl]amino]-3-methylbutyl]] | –
6 | < 0.01 | 175 to 180 | < 0.2 | CCCCc1ccc(C(=O)N[C@@H](CNC(=O)c2ccno2)C(=O)N[C@@H](CC(C)C)B(O)O)cc1 [E.5.25, Boronic acid, [(1R)-1-[[(2S)-3-(2-isoxazolylcarbonylamino)-2-[(4-butylbenzoylamino)]-1-oxopropyl]amino]-3-methylbutyl]] | –
7 | < 0.01 | 136 to 141 | < 0.2 | CCCCCCCCCC(=O)N[C@@H](CNC(=O)c1cccnc1)C(=O)N[C@@H](CC(C)C)B(O)O [E.5.22, Boronic acid, [(1R)-1-[[(2S)-3-(nicotinoylamino)-2-(decanoylamino)-1-oxopropyl]amino]-3-methylbutyl]] | –
8 | < 0.01 | 133 to 135 | < 0.2 | CCCCc1ccc(C(=O)N[C@@H](CNC(C)=O)C(=O)N[C@@H](CC(C)C)B2O[C@@H]3C[C@@H]4C[C@@H](C4(C)C)[C@]3(C)O2)cc1 [D.24.3, 4-butylbenzamide, N-[(1S)-1-[[[(1R)-1-[(3aS,aS,6S,7aR)-hexahydro-3a,5,5-trimethyl-4,6-methano-1,3,2-benzodioxaborol-2-yl-]-3-methylbutyl]amino]carbonyl]-2-(acetamido)ethyl]-] | –
9 | < 0.01 | 178 to 180 | 0.2 to 2 | CCCCc1ccc(C(=O)N[C@@H](CNC(=O)c2ccc(-c3ccccc3)cc2)C(=O)N[C@@H](CC(C)C)B(O)O)cc1 [E.5.33, Boronic acid, [(1R)-1-[[(2S)-3-(4-phenybenzamide]-2-[(4-butylbenzoyl)amino]-1-oxopropyl]amino]-3-methylbutyl]] | –
